Experimental data taken from ChEMBL document CHEMBL2390845, “Identification of PDZ ligands by docking-based virtual screening for the development of novel analgesic agents” (Bioorg Med Chem Lett, 2013).
Active and inactive are the calls of the source.

Columns and labels:
[1] = molecular target: Disks large homolog 4 (Homo sapiens) (UniProt P78352); assay: Binding affinity to PSD-95 PDZ2 domain (unknown origin) expressed in Escherichia coli BL21 at 1 mM by 1H-15N HSQC NMR analysis
[2] = molecular target: Disks large homolog 4 (Homo sapiens) (UniProt P78352); assay: Binding affinity to PSD-95 PDZ1 domain (unknown origin) expressed in Escherichia coli BL21 at 1 mM by 1H-15N HSQC NMR analysis
Rattus norvegicus [3] = assay: Antihyperalgesic activity in chronic constriction nerve injury-induced rat neuropathic pain model assessed as reduction in mechanical hyperalgesia measuring vocalisation threshold to paw-pressure at 122.6 ng administered intrathecally measured 15 mins post-compound treatment; format: functional, organism-based
Rattus norvegicus [4] = assay: Antihyperalgesic activity in intrathecally dosed chronic constriction nerve injury-induced rat neuropathic pain model assessed as vocalisation threshold to paw-pressure measured up to 120 mins post-compound treatment; format: functional, organism-based

Disks large homolog 4 (Homo sapiens), sequence (P78352 whole entry, looked up, the tested form may be a part): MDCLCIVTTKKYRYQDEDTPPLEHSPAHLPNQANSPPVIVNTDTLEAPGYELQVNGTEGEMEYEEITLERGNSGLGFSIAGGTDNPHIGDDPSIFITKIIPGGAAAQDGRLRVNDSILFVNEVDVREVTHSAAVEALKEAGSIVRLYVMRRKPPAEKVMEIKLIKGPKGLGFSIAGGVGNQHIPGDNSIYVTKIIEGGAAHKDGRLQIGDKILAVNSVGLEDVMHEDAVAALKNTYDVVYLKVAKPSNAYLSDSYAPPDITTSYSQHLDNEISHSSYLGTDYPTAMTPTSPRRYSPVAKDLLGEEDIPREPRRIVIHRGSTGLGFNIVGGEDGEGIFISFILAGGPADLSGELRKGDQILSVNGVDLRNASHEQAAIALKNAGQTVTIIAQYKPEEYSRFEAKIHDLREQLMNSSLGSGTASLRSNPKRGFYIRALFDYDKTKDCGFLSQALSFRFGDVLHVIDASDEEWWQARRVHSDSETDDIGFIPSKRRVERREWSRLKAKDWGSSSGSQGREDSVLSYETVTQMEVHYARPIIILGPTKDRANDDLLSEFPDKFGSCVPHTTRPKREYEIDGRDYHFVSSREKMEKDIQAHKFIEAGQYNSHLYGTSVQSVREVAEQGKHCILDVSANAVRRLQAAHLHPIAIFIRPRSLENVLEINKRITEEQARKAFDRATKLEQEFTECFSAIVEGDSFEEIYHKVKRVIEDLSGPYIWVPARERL

Row | Compound | Activity [1] | Activity [2] | Activity (Rattus norvegicus [3]) | Activity (Rattus norvegicus [4])
1 | O=C(O)c1ccc(N[C@@H]2O[C@H](CO)[C@@H](O)[C@H](O)[C@H]2O)cc1 | inactive | inactive | – | –
2 | O=C(N/N=C/c1cccc(O)c1O)c1ccc(O)cc1 | inactive | inactive | – | –
3 | Cc1cc2cc(C)c(C(=O)O)nc2cc1C(=O)O | Active | Active | Active | Dose-dependent effect
